{"source": "patent US20100093760A1", "about": "“METHODS FOR IDENTIFYING COMPOUNDS THAT MODULATE CELL SIGNALING AND METHODS EMPLOYING SUCH COMPOUNDS” (The General Hospital Corporation, priority 2006, published 2010)", "key": {"[1]": {"settings": "mice, 10 to 30 mg/kg each day (Kim et al. 2004); cited from earlier work"}, "[2]": {"system": "BMP-mediated SMAD1/5/8 activation in BMPR-II-deficient PASMCs", "experiment": "BMP-induced SMAD1/5/8 activation in BMPR-II-deficient PASMCs", "format": "cell-based, murine", "experimental": "(§1) Wild-type and BMPR-II-deficient PASMC were isolated as previously described (Yu et al., J. Biol. Chem. 280:24443-24450, 2005), and cultured in RPMI medium (Invitrogen) supplemented with 10% FBS. C2C12 cells (American Type Culture Collection, Manassas, Va.) were cultured in DMEM supplemented with glutamine and 10% FBS. HepG2 cells and Hep3B cells (ATCC) were cultured in Minimal Essential Alpha Medium with L-glutamine (α-MEM, Invitrogen) containing 10% FBS. For studies of SMAD activation in vitro, PASMC were incubated in 0.5% FCS RPMI for 24 hours, followed by preincubation with drug compounds, noggin, or vehicle for 30 minutes, followed the addition of recombinant BMPs 2, 4, 6, or 7, or TGF-β1 or Activin A (R&D Systems, Minneapolis, Minn.) for 30 minutes.\n(§2) Cell extracts or tissues were mechanically homogenized in SDS-lysis buffer (62.5 mM Tris-HCl (pH 6.8), 2% SDS, 10% glycerol, 50 mM DTT, 0.01% bromophenol blue); separated by SDS-PAGE; immunoblotted with anti-phospho-SMAD1/5/8, anti-phospho-SMAD2 (Cell Signaling, Beverly, Mass.), or anti-α-tubulin (Upstate/Millipore, Billerica, Mass.) Abs; and visualized using ECL Plus (GE Healthcare, Piscataway, N.J.). Levels of immunoreactive proteins were quantitated by ImageQuant software on a Storm phosphorimager (GE Healthcare)."}, "zebrafish": {"system": "zebrafish", "experiment": "Zebrafish bone mineralization (calcein staining)", "format": "in vivo", "settings": "at 10 dpf", "experimental": "At 5 dpf and onward, larvae were fed for 1 hour every other day. […] At 10 dpf, larvae were immersed in calcein (0.2%) for 30 minutes, as previously described (Du et al., Dev. Biol. 238:239-246, 2001). […] Calcified skeletal structures were visualized by green fluorescence and the number of vertebral bodies counted."}, "hepcidin promoter": {"system": "hepcidin promoter", "experiment": "Hepcidin promoter luciferase reporter assay (Hep-Luc) in Hep3B cells", "format": "cell-based", "experimental": "(§3) Murine PASMCs grown to 50% confluence in 6-well plates were transiently transfected with 0.3 μg Id1 promoter luciferase reporter construct (BRE-Luc, Dr. Peter ten Dijke, Leiden University Medical Center, Netherlands (Korchynskyi et al., J. Biol. Chem. 277:4883-4891, 2002)) in combination with 0.6 μg plasmids expressing constitutively-active forms of BMP type I receptors (caALK2, caALK3, or caALK6, kindly provided by Dr. Kohei Miyazono, University of Tokyo, Japan (Fujii et al., Mol. Biol. Cell 10:3801-3813, 1999)), using Fugene6 (Roche). To assess Activin and […] type I receptor function, PASMCs were transiently transfected with 0.3 μg PAI-1 promoter luciferase reporter construct (CAGA-Luc, Dr. Peter ten Dijke (Dennler et al., Embo J. 17:3091-3100, 1998)) in combination with 0.6 μg plasmids expressing constitutively active forms of type I receptors (caALK4, caALK5, and caALK7, also provided by Dr. Kohei Miyazono (Okadome et al., J. Biol. Chem. 271:21687-21690, 1996; Shimizu et al., Genes Cells 3:125-134, 1998)). For both reporters, 0.2 μg pRL-TK Renilla luciferase (Promega) was used to control for transfection efficiency. […] Cell extracts were harvested, and relative promoter activity quantitated by the ratio of firefly to Renilla luciferase activity using the dual luciferase assay kit (Promega). […] Hepcidin promoter activity was measured by luciferase assay as above."}, "[3]": {"system": "BMP-mediated SMAD1/5/8 phosphorylation", "experiment": "Immunoblot of BMP-induced SMAD1/5/8 phosphorylation in PASMCs", "format": "cell-based, murine", "settings": "for IC50: Mus musculus, PASMC", "experimental": "as §1, §2\nThe statistical significance of compared measurements was measured using the student's two-tailed T-test or one-way ANOVA with Bonferroni correction. Hill plot analysis of Compound C/Dorsomorphin inhibition of SMAD1/5/8 phosphorylation was performed using GraFit software (Erithacus Software, Surrey, England)."}, "caALK4": {"target": "T1, caALK4 (Homo sapiens, UniProt P36896, T206D)", "T1 construct": "expressed in transfected cells; host or cells: murine PASMCs, transient transfection", "T1 sequence (P36896 24-505 T206D)": "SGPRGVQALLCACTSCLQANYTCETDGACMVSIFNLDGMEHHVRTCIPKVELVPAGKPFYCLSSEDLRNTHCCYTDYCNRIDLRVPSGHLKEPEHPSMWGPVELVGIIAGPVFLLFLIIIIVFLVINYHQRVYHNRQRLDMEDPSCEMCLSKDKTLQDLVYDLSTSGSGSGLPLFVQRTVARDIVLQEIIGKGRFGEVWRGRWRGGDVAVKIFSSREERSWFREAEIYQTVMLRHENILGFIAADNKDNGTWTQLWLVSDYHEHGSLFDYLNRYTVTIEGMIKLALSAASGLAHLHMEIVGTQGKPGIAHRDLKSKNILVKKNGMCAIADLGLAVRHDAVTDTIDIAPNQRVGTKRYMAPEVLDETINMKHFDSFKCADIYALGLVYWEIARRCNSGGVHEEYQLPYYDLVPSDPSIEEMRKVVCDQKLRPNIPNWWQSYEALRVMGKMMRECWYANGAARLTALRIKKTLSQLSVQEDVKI", "experiment": "Constitutively-active ALK4 PAI-1 promoter reporter (CAGA-Luc)", "format": "cell-based", "settings": "PASMCs, up to 20 μM", "experimental": "as §3"}, "MAPK p38": {"system": "MAPK p38", "experiment": "Immunoblot of BMP4-mediated MAPK p38 phosphorylation in PASMCs", "format": "cell-based, murine", "settings": "BMP4 20 ng/ml, 0.2-40 μM"}, "chordin morphant embryos": {"system": "chordin morphant embryos", "experiment": "Rescue of ventralization in chordin morphant zebrafish embryos", "format": "in vivo", "settings": "20 μM at 2 hpf, 36 hpf", "text": "Since treatment with Compound C/Dorsomorphin mimics BMP antagonism in zebrafish, it was postulated that Compound C/Dorsomorphin might rescue ventralization caused by loss of the endogenous BMP antagonist chordin ([…] et al., Development 123:143-151, 1996; Nasevicius et al., Nat. Genet. 26:216-220, 2000). […] Genet. 26:216-220, 2000; Leung et al., Dev. Biol. 277:235-254, 2005). […] Therefore, Compound C/Dorsomorphin treatment compensates for the loss of an endogenous BMP antagonist in zebrafish embryos, confirming its function as a BMP antagonist."}}, "note": "“Also recorded” adds a separate entry of the source. Where two headings read alike, the source gives them in different places.", "data": [{"compound": "c1cc(-c2cnn3cc(-c4ccc(OCCN5CCCCC5)cc4)cnc23)ccn1", "note": "[Compound C/Dorsomorphin]", "values": [{"measurement": "tolerability", "setting": "[1]", "result": "without obvious toxicity"}, {"measurement": "effect on activation of SMAD1/5/8 by BMPs 2, 4, 6, and 7", "setting": "[2]; BMPR-II-deficient PASMCs, 4 μM, BMPs 10 ng/ml, 30 minutes", "result": "inhibited"}, {"measurement": "effect on activity of BMPs 2, 4, 6, 7, and 9", "setting": "[2]; wild type and BMP type II receptor knockout cells", "result": "effectively inhibits"}, {"measurement": "number of mineralized vertebrae", "setting": "zebrafish; 4 μM from 24 hpf, P<0.001 vs DMSO", "result": "significant decrease"}, {"measurement": "effect on vertebral and craniofacial bone calcification (calcein staining)", "setting": "zebrafish; 1-4 μM from 24 hpf", "result": "inhibition of bone mineralization; also recorded: disrupts vertebral bone mineralization; also recorded: disrupts craniofacial bone mineralization; also recorded: inhibits bone mineralization; also recorded: decrease in vertebral segment and craniofacial bone calcification; also recorded: reduced vertebral segment and craniofacial bone calcification"}, {"measurement": "viability and gross morphology", "setting": "zebrafish; 1-4 μM from 24 hpf", "result": "morphologically and functionally normal; also recorded: without disrupting overall morphology; also recorded: viable fish at 10 dpf without evidence of dorsalization; also recorded: morphologically grossly normal and viable"}, {"measurement": "effect on HJV-induced hepcidin promoter activity (Hep-Luc)", "setting": "hepcidin promoter; Hep3B cells transfected with HJV", "result": "effectively abrogated; also recorded: blocked"}, {"measurement": "effect on BMP2-induced hepcidin promoter activity (Hep-Luc)", "setting": "hepcidin promoter; Hep3B cells, 10 μM, BMP2 25 ng/ml", "result": "effectively abrogated"}, {"measurement": "IC50", "setting": "[3]; FIG. 6, read-out: IC50, activation of SMADs 1, 5, and 8 by BMP4", "result": 500, "unit": "nM"}, {"measurement": "IC50", "setting": "[3]; PASMCs, Hill plot, 0.1-50 μM, read-out: functional IC50, BMP4-stimulated SMAD1/5/8 phosphorylation", "result": 470, "unit": "nM"}, {"measurement": "level of phosphorylated SMAD1/5/8 in cells not treated with BMP", "setting": "[3]; PASMCs, 4 μM", "result": "below basal levels"}, {"measurement": "effect on activation of SMAD1/5/8 by BMPs 2, 4, 6, and 7", "setting": "[3]; PASMCs, 4 μM, BMPs 10 ng/ml, 30 minutes", "result": "blocking; also recorded: inhibited"}, {"measurement": "effect on BMP4-mediated SMAD1/5/8 phosphorylation", "setting": "[3]; PASMCs, BMP4 20 ng/ml, 0.2-40 μM pretreatment 30 minutes", "result": "inhibited activation of SMADs 1/5/8 dose dependently; also recorded: dose-dependent inhibition"}, {"measurement": "effect on caALK4-mediated PAI-1 promoter activity (CAGA-Luc)", "setting": "caALK4", "result": "did not inhibit; also recorded: not decreased"}, {"measurement": "effect on BMP4-mediated phosphorylation of MAPK p38", "setting": "MAPK p38", "result": "without affecting MAPK p38 activation; also recorded: without inhibiting p38 activation; also recorded: did not affect; also recorded: does not exhibit significant inhibition"}, {"measurement": "ventralization of chordin morphant embryos", "setting": "chordin morphant embryos", "result": "prevented ventralization and ICM expansion; also recorded: little or no ventralization"}]}]}
